Measurements reported in patent publication US11801239B2, “Powder injection of the donepezil semi palmoxiric acid salt, composition containing same and preparation method therefor” (priority 2017, dated 2023).

What was measured:
[1] = measured by a laser granulometer
Method: Step 3: 0.2 g of donepezil semi pamoate seed crystals (the preparation method refers to example 4 of patent WO2013078608) were added into the filtrate obtained in step 1 to obtain a solution. Then the filtrate obtained in step 2 was slowly and dropwise added into the above solution at room temperature over 1 hour, slowly stirred for 5-10 hours with an anchor stir bar and filtered.
Step 1 and step 2 are the same as those of powder 1 #. Step 3: 0.2 g of donepezil semi pamoate seed crystals (the preparation method is the same as above) were added into the filtrate obtained in step 1 to obtain a solution. Then the filtrate obtained in step 2 was slowly and dropwise added into the above solution at 4-10° C. over 1 hour, stirred for 1-2 hours at room temperature and filtered.
Step 1 and step 2 are the same as those of powder 1 #. Step 3: 0.2 g of donepezil semi pamoate seed crystals (the preparation method refers to patent WO2013078608) were added into the filtrate obtained in step 1 to obtain a solution. Then the obtained solution was heated to 50-60° C. The filtrate obtained in step 2 was slowly and dropwise added into the above solution. After completion of the addition, the reaction solution was cooled to room temperature, stirred for 1-2 hours, and filtered.

[2] = for Appearance observed: dry powder; for Angle of repose: funnel method, arctg (H/r); for fluidity: judged from angle of repose
Method: The angle of repose is a common index for evaluating the fluidity of dry powder. When measuring the angle of repose, the funnel is fixed at a suitable height H. The dry powder prepared in Example 1 was placed in a funnel and naturally leaked to form a pile until tip of the cone almost contacts the outlet of the funnel. Then, the radius r of the bottom surface of the cone was measured, and the angle of repose is arctg (H/r).

[3] = 160° C. for 2 hours
Method: The powder 3 # prepared in Example 1 was placed at 160° C. for 2 hours, and the changes in appearance and weight loss thereof were recorded.

SMILES | average particle size D50 [1] [µm] | Appearance observed [2] | Angle of repose [2] [°] | fluidity [2] | changes in appearance [3] | weight loss [3]
COc1cc2c(cc1OC)C(=O)C(CC1CCN(Cc3ccccc3)CC1)C2.COc1cc2c(cc1OC)C(=O)C(CC1CCN(Cc3ccccc3)CC1)C2.O=C(O)c1cc2ccccc2c(Cc2c(O)c(C(=O)O)cc3ccccc23)c1O [Powder 1#, donepezil semi pamoate] | 90 ± 17 | Homogeneous solid particles | 28 ± 4 | certain fluidity | – | –
COc1cc2c(cc1OC)C(=O)C(CC1CCN(Cc3ccccc3)CC1)C2.COc1cc2c(cc1OC)C(=O)C(CC1CCN(Cc3ccccc3)CC1)C2.O=C(O)c1cc2ccccc2c(Cc2c(O)c(C(=O)O)cc3ccccc23)c1O [Powder 2#, donepezil semi pamoate] | 42 ± 10 | Homogeneous solid particles | 35 ± 3 | certain fluidity | – | –
COc1cc2c(cc1OC)C(=O)C(CC1CCN(Cc3ccccc3)CC1)C2.COc1cc2c(cc1OC)C(=O)C(CC1CCN(Cc3ccccc3)CC1)C2.O=C(O)c1cc2ccccc2c(Cc2c(O)c(C(=O)O)cc3ccccc23)c1O [Powder 3#, donepezil semi pamoate] | 13 ± 2 | Homogeneous solid particles | 42 ± 1 | certain fluidity | gradually changed from light yellow to bright brown, and finally coagulated and melted | about 5.14%
COc1cc2c(cc1OC)C(=O)C(CC1CCN(Cc3ccccc3)CC1)C2.COc1cc2c(cc1OC)C(=O)C(CC1CCN(Cc3ccccc3)CC1)C2.O=C(O)c1cc2ccccc2c(Cc2c(O)c(C(=O)O)cc3ccccc23)c1O [Powder 4#, donepezil semi pamoate] | 3 ± 1 | Homogeneous solid particles | 38 ± 3 | certain fluidity | – | –
COc1cc2c(cc1OC)C(=O)C(CC1CCN(Cc3ccccc3)CC1)C2.COc1cc2c(cc1OC)C(=O)C(CC1CCN(Cc3ccccc3)CC1)C2.O=C(O)c1cc2ccccc2c(Cc2c(O)c(C(=O)O)cc3ccccc23)c1O [Powder 5#, donepezil semi pamoate] | 0.9 ± 0.4 | Obvious static electricity, | 50 ± 4 | poor fluidity | – | –
